# Measured values published in patent US20210330611A1, “THERAPY FOR NEUROLOGICAL DISEASES/DISORDERS” (priority 2020, published 2021).
# Counter-ions that a name gives are not always drawn. Like-named read-outs stand apart in the source and are kept apart here.
# Experiments:
# [1] = tested on: fibrin-induced microglia activation; assay: Image-based assay of fibrin-induced microglia activation (HTS and dose response); format: cell-based, rat; details: primary microglia HTS, fibrin stimulation; for inhibition at 10 µM: Rattus norvegicus, Microglia, read-out: Fibrin % inhibition
# [2] = tested on: LPS-induced microglia activation; assay: Image-based assay of LPS-induced microglia activation (HTS and dose response); format: cell-based, rat; details: for inhibition at 10 µM: Rattus norvegicus, Microglia, read-out: LPS % inhibition
# [3] = tested on: fibrin- and LPS-induced microglia activation; assay: cells; format: cell-based, rat
# primary rat microglia [4] = tested on: primary rat microglia
# primary rat microglia [5] = assay: Cell toxicity (dead cells, size <150 μm2) in coated fibrin (cFib) assay; details: primary microglia HTS;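 note: share of dead cells sized under 150 µm2 at 10 µM in fibrin-stimulated microglia HTS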
# [6] = cell size >800 μm2 as marker of activation
# [7] = classification by fibrin and LPS inhibition in HTS
# [8] = fibrin stimulation, cell size <150 μm2 as marker of toxicity
# [9] = primary microglia HTS, LPS stimulation, compounds at 10 μM
# [10] = quadrant by fibrin and LPS inhibition, HTS at 10 μM
# [11] = fibrin assay, dead cells (size <150 μm2)
SMILES,"Fibrin % inhibition [1, 6] [%]",LPS % inhibition [2] [%],"Quadrant (FIG. 5b) [3, 7]",LPS % cell toxicity (primary rat microglia [4]; rat) [%],Fibrin % cell toxicity (primary rat microglia [5]; [8]) [%],inhibition at 10 µM ([2]; 48 h) [%],inhibition at 10 µM ([1]; compounds at 10 μM) [%],"inhibition at 10 µM [2, 9] [%]","Quadrant (FIG. 5b) [3, 10]",Fibrin % cell toxicity (primary rat microglia [5]; [11]) [%],LPS % cell toxicity (primary rat microglia [4]) [%],"inhibition at 10 µM [1, 6] [%]","inhibition at 10 µM ([2]; 48 h, primary microglia HTS, LPS stimulation, cell size >800 μm2 as marker of activation) [%]"
CC[C@H](C)C(=O)O[C@H]1C[C@H](O)C=C2C=C[C@H](C)[C@H](CC[C@@H](O)C[C@@H](O)CC(=O)O)[C@H]21 [Pravastatin Sodium],21,11,Q4,0,1,–,–,–,–,–,–,–,–
CC[C@H](C)C(=O)O[C@H]1C[C@H](O)C=C2C=C[C@H](C)[C@H](CC[C@@H](O)C[C@@H](O)CC(=O)O)[C@H]21 [Pravastatin],10,–,Q4,0,1,10,–,–,–,–,–,–,–
C[C@]12C=CC(=O)C=C1CC[C@@H]1[C@@H]2[C@@H](O)C[C@@]2(C)[C@H]1CC[C@]2(O)C(=O)COC(=O)CCC(=O)O [Prednisolone Hemisuccinate],–,–,–,3,–,–,106,96,Q2,3,–,–,–
CC(=O)[C@H]1CC[C@H]2[C@@H]3CC=C4C[C@@H](O)CC[C@]4(C)[C@H]3CC[C@]12C [Pregnenolone],−11,12,Q4,–,1,–,–,–,–,–,0,–,–
OC(CCN1CCCCC1)(c1ccccc1)c1ccccc1 [Pridinol],–,–,Q4,0,1,4,–,–,–,–,–,-18,–
CCCNC(C)C(=O)Nc1ccccc1C (stereo not shown) [Prilocaine],–,–,Q4,0,0,12,–,–,–,–,–,-3,–
CC(C)(Sc1cc(C(C)(C)C)c(O)c(C(C)(C)C)c1)Sc1cc(C(C)(C)C)c(O)c(C(C)(C)C)c1 [Probucol],–,–,Q4,0,0,-1,–,–,–,–,–,12,–
"CCN(CC)CCOC(=O)c1ccc(N)cc1 [Procaine, Novocain]",−10,25,Q4,–,0,–,–,–,–,–,0,–,–
CCC(NC(C)C)C(O)c1ccc(O)c2[nH]c(=O)ccc12 (stereo not shown) [Procaterol],–,–,Q4,0,1,21,–,–,–,–,–,16,–
O=C(O)CCc1nc2ccccc2[nH]1 [Procodazole],–,–,Q4,0,1,15,–,–,–,–,–,-15,–
OC(CCN1CCCC1)(c1ccccc1)C1CCCCC1 (stereo not shown) [Procyclidine],–,–,Q4,1,1,26,–,–,–,–,–,0,–
Nc1ccc2cc3ccc(N)cc3nc2c1 [Proflavine],–,–,–,59,–,–,113,132,Q2,82,–,–,–
CCCN(CCC)C(=O)C(CCC(=O)O)NC(=O)c1ccccc1 (stereo not shown) [Proglumide],–,–,Q4,0,1,-1,–,–,–,–,–,-4,–
CC(C)NC(=N)NC(=N)Nc1ccc(Cl)cc1 [Proguanil; Chlorguanide Hydrochloride],−7,20,Q4,–,0,–,–,–,–,–,1,–,–
CC(CN1c2ccccc2Sc2ccccc21)N(C)C (stereo not shown) [Promethazine],–,–,Q4,0,0,5,–,–,–,–,–,-30,–
CC(C)[N+](C)(CCOC(=O)C1c2ccccc2Oc2ccccc21)C(C)C [Propantheline],–,–,Q4,0,1,20,–,–,–,–,–,-7,–
CCCOc1ccc(C(=O)OCCN(CC)CC)cc1N [Proparacaine],–,–,Q4,0,1,13,–,–,–,–,–,-6,–
CNC(=O)Oc1ccccc1OC(C)C [Propoxur],–,–,Q4,0,1,–,–,–,–,–,–,-51,8
CCCOc1cc(N)ccc1C(=O)OCCN(CC)CC [Propoxycaine],–,–,Q4,0,0,14,–,–,–,–,–,13,–
C[C@@H]1O[C@@H](O[C@@H]2C=C3CC[C@@H]4[C@H](CC[C@]5(C)[C@@H](c6ccc(=O)oc6)CC[C@]45O)[C@@]3(C)CC2)[C@H](O)[C@H](O)[C@H]1O [Proscillaridin],–,–,Q4,0,1,16,–,–,–,–,–,8,–
"CCCc1cc(C(N)=S)ccn1 [Protionamide, Ektebin]",−18,12,Q4,–,1,–,–,–,–,–,0,–,–
C=CC1=C(C)c2cc3[nH]c(cc4nc(cc5[nH]c(cc1n2)c(C)c5CCC(=O)O)C(CCC(=O)O)=C4C)c(C)c3C=C [Protoporphyrin Ix],–,–,Q4,0,1,2,–,–,–,–,–,-70,–
CC(O)Cn1cnc2c1c(=O)n(C)c(=O)n2C (stereo not shown) [Proxyphylline],–,–,Q4,0,1,11,–,–,–,–,–,-21,–
Cc1oc(=O)oc1CN1CCN(c2cc3c(cc2F)c(=O)c(C(=O)O)c2n3C(C)S2)CC1 (stereo not shown) [Prulifloxacin],–,–,Q4,0,1,16,–,–,–,–,–,7,–
NC(=O)c1cnccn1 [Pyrazinamide],–,–,Q4,0,0,13,–,–,–,–,–,-20,–
CN(C)C(=O)Oc1ccc[n+](C)c1 [Pyridostigmine],–,–,Q4,0,1,9,–,–,–,–,–,4,–
CCc1nc(N)nc(N)c1-c1ccc(Cl)cc1 [Pyrimethamine],–,–,Q4,1,1,12,–,–,–,–,–,-11,–
CCC1(CC)C(=O)C=CNC1=O [Pyrithyldione],–,–,Q4,0,1,9,–,–,–,–,–,-24,–
Cc1ncc(CSSCc2cnc(C)c(O)c2CO)c(CO)c1O [Pyritinol],–,–,Q4,0,1,4,–,–,–,–,–,-15,–
